Laboratory results published in patent publication US9708314B2, “Heterocyclic amide compound” (NISSAN CHEMICAL INDUSTRIES, LTD., priority 2013, dated 2017).

Legend:
Type in all cases: in vivo
Alopecurus myosuroides = test: Test Example 4: herbicidal effect by application to foliage (diluvial soil, plastic box); conditions: application to foliage, 320 g/ha
Procedure, shortened: (§1)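 Greenhouse plants (25° C. to 30° C., 14 d, diluvial soil) receive a foliar spray of water-diluted emulsifiable formulation at defined g/ha. Grading after 3 weeks uses a six-step herbicidal-ratio scale, with 4 covering 70% to <90% and 1 covering 5% to <20%.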

[1] = test system: Echinochloa crus-galli var. crus-galli; test: as above; conditions: application to foliage, 320 g/ha
Procedure, shortened: as §1

Galium spurium = test: as above; conditions: application to foliage, 320 g/ha
Procedure, shortened: as §1

Apera spica-venti. = test: as above; conditions: application to foliage, 320 g/ha
Procedure, shortened: as §1

Digitaria ciliaris = test: as above; conditions: application to foliage, 320 g/ha
Procedure, shortened: as §1

Chenopodium album = test: as above; conditions: application to foliage, 320 g/ha
Procedure, shortened: as §1

Lolium multiflorum Lam. = test: as above; conditions: application to foliage, 320 g/ha
Procedure, shortened: as §1

Abutilon theophrasti = test: as above; conditions: application to foliage, 320 g/ha
Procedure, shortened: as §1

Setaria viridis = test: as above; conditions: application to foliage, 320 g/ha
Procedure, shortened: as §1

Avena fatua = test: as above; conditions: application to foliage, 320 g/ha
Procedure, shortened: as §1

Brassica campestris L. = test: Test Example 4: effect on crop by application to foliage (diluvial soil, plastic box); conditions: application to foliage, 320 g/ha
Procedure, shortened: as §1

[2] = test system: Beta vulgaris ssp. vulgaris; test: as above; conditions: application to foliage, 320 g/ha
Procedure, shortened: as §1

Zea mays = test: as above; conditions: application to foliage, 320 g/ha
Procedure, shortened: as §1

Triticum aestivum = test: as above; conditions: application to foliage, 320 g/ha
Procedure, shortened: as §1

[3] = test system: directly sowed Oryza sativa; test: as above; conditions: application to foliage, 320 g/ha
Procedure, shortened: as §1

Glycine max = test: as above; conditions: application to foliage, 320 g/ha
Procedure, shortened: as §1

[4] = test system: Echinochloa crus-galli var. crus-galli; test: Test Example 3: herbicidal effect by application to foliage (Wagner pot, water depth 0.1-0.5 cm); conditions: Nineteenth Table; application to foliage; application herbicide amount 320 g/ha
Procedure, shortened: (§2)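 Three weeks after spraying, each species was graded 0–5 for herbicidal ratio, 5 being 90% or more. Application: water-diluted emulsifiable concentrate at a fixed g/ha to foliage of 14-day-old greenhouse (25–30 °C) plants in alluvial soil.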

Cyperus difformis = test: as above; conditions: Nineteenth Table; application to foliage; application herbicide amount 320 g/ha
Procedure, shortened: as §2

Leptochloa chinensis = test: as above; conditions: Nineteenth Table; application to foliage; application herbicide amount 320 g/ha
Procedure, shortened: as §2

Row | SMILES | herbicidal effect, J (Alopecurus myosuroides) (Alopecurus myosuroides) | herbicidal effect, H (Echinochloa crus-galli var. crus-galli) [1] | herbicidal effect, Q (Galium spurium) (Galium spurium) | herbicidal effect, L (Apera spica-venti.) (Apera spica-venti.) | herbicidal effect, F (Digitaria ciliaris) (Digitaria ciliaris) | herbicidal effect, O (Chenopodium album) (Chenopodium album) | herbicidal effect, K (Lolium multiflorum Lam.) (Lolium multiflorum Lam.) | herbicidal effect, M (Abutilon theophrasti) (Abutilon theophrasti) | herbicidal effect, G (Setaria viridis) (Setaria viridis) | herbicidal effect, I (Avena fatua) (Avena fatua) | effect on crop, g (Brassica campestris L.) (Brassica campestris L.) | effect on crop, f (Beta vulgaris ssp. vulgaris) [2] | effect on crop, b (Zea mays) (Zea mays) | effect on crop, e (Triticum aestivum) (Triticum aestivum) | effect on crop, d (directly sowed Oryza sativa) [3] | effect on crop, c (Glycine max) (Glycine max) | H (herbicidal effect grade) [4] | E (herbicidal effect grade) (Cyperus difformis) | D (herbicidal effect grade) (Leptochloa chinensis)
1 | CCSc1nnc2c(C(=O)Nc3nnnn3CCOC)ccc(C(F)(F)F)n12 [2-098] | 2 (Herbicidal ratio of 20% or more and less than 40%) | 5 (Herbicidal ratio of 90% or more (almost completely withered)) | 4 (Herbicidal ratio of 70% or more and less than 90%) | 4 (Herbicidal ratio of 70% or more and less than 90%) | 5 (Herbicidal ratio of 90% or more (almost completely withered)) | 5 (Herbicidal ratio of 90% or more (almost completely withered)) | 3 (Herbicidal ratio of 40% or more and less than 70%) | 4 (Herbicidal ratio of 70% or more and less than 90%) | 5 (Herbicidal ratio of 90% or more (almost completely withered)) | 4 (Herbicidal ratio of 70% or more and less than 90%) | 4 (Herbicidal ratio of 70% or more and less than 90%) | 5 (Herbicidal ratio of 90% or more (almost completely withered)) | 4 (Herbicidal ratio of 70% or more and less than 90%) | 3 (Herbicidal ratio of 40% or more and less than 70%) | 4 (Herbicidal ratio of 70% or more and less than 90%) | 1 (Herbicidal ratio of 5% or more and less than 20%) | 5 (Herbicidal ratio of 90% or more (almost completely withered)) | 5 (Herbicidal ratio of 90% or more (almost completely withered)) | 5 (Herbicidal ratio of 90% or more (almost completely withered))
2 | CCSc1nnc2c(C(=O)Nc3ncnn3C)ccc(C(F)(F)F)n12 [4-003] | 0 (Herbicidal ratio of 5% or less (almost no effect)) | 4 (Herbicidal ratio of 70% or more and less than 90%) | 1 (Herbicidal ratio of 5% or more and less than 20%) | 1 (Herbicidal ratio of 5% or more and less than 20%) | 2 (Herbicidal ratio of 20% or more and less than 40%) | 5 (Herbicidal ratio of 90% or more (almost completely withered)) | 0 (Herbicidal ratio of 5% or less (almost no effect)) | 4 (Herbicidal ratio of 70% or more and less than 90%) | 1 (Herbicidal ratio of 5% or more and less than 20%) | 0 (Herbicidal ratio of 5% or less (almost no effect)) | 1 (Herbicidal ratio of 5% or more and less than 20%) | 4 (Herbicidal ratio of 70% or more and less than 90%) | 0 (Herbicidal ratio of 5% or less (almost no effect)) | 0 (Herbicidal ratio of 5% or less (almost no effect)) | 4 (Herbicidal ratio of 70% or more and less than 90%) | 0 (Herbicidal ratio of 5% or less (almost no effect)) | 4 (Herbicidal ratio of 70% or more and less than 90%) | 0 (Herbicidal ratio of 5% or less (almost no effect)) | 3 (Herbicidal ratio of 40% or more and less than 70%)
